In data set [1] the test system is Lolium multiflorum. The data set can be described thus: Effect on MDA content in Lolium multiflorum (Italian ryegrass) shoots compound administered at rate of 14 mf/flat measured 48 hr post treatment (reference value: 0.65 uM/L). It counts as functional.
The test system of data set [2] is Triticum aestivum. The data set can be described thus: Effect on antioxidant enzyme system in Triticum aestivum (wheat) shoots assessed as glutathione S-transferase activity per mg protein compound administered at rate of 14 mf/flat measured […] post treatment (reference value: 2.4 nmol/s per mg protein). It counts as functional.
In data set [3] the test system is Triticum aestivum. The data set can be described thus: Effect on antioxidant enzyme system in Triticum aestivum (wheat) shoots assessed as glutathione reductase activity per mg protein compound administered at rate of 14 mf/flat measured 72 hr post treatment (reference value: 1.1 nmol/s per mg protein). Type of data set: functional.
In data set [4] the test system is Lolium multiflorum. The data set can be described thus: Effect on antioxidant enzyme system in Lolium multiflorum (Italian ryegrass) shoots assessed as dehydroascorbate reductase activity per mg protein compound administered at rate of 14 mf/flat measured 24 hr post treatment (reference value: 3.9 nmol/s per mg protein). Type of data set: functional.
The subject of data set [5] is Triticum aestivum. The data set can be described thus: Effect on photosynthetic activity in Triticum aestivum (wheat) shoots assessed as dark respiration rate measured by CO2 production compound administered at rate of 14 mf/flat measured 72 hr post treatment (reference value: -1.07 umol/m2/s). Type of data set: functional.
In data set [6] the test system is Triticum aestivum. The data set can be described thus: Effect on photosynthetic activity in Triticum aestivum (wheat) shoots assessed as dark respiration rate measured by CO2 production compound administered at rate of 14 mf/flat measured 48 hr post treatment (reference value: -1.43 umol/m2/s). It counts as functional.
For data set [7], the system named is Lolium multiflorum. Description: Increase in glutathione S-transferase activity in Lolium multiflorum (Italian ryegrass) compound administered at rate of 14 mf/flat measured 24 hr post treatment. It counts as functional.
Data set [8] deals with Lolium multiflorum. Description: Increase in antioxidant enzyme system in Lolium multiflorum (Italian ryegrass) shoots assessed as increase in dehydroascorbate reductase activity compound administered at rate of 14 mf/flat measured 48 hr post treatment. Type of data set: functional.
In data set [9] the test system is Lolium multiflorum. The data set can be described thus: Increase in antioxidant enzyme system in Lolium multiflorum (Italian ryegrass) shoots assessed as increase in ascorbate peroxidase activity compound administered at rate of 14 mf/flat measured 72 hr post treatment. Type of data set: functional.
In data set [10] the test system is Triticum aestivum. The data set can be described thus: Effect on photosynthetic activity in Triticum aestivum (wheat) shoots assessed as leaf net photosynthesis rate measured by CO2 production compound administered at rate of 14 mf/flat measured 48 hr post treatment (reference value: 1.92 umol/m2/s). Type of data set: functional.
For data set [11], the system named is Triticum aestivum. The data set can be described thus: Effect on antioxidant enzyme system in Triticum aestivum (wheat) shoots assessed as ascorbate peroxidase activity per mg protein compound administered at rate of 14 mf/flat measured 72 hr post treatment (reference value: 17.2 nmol/s per mg protein). Type of data set: functional.
Data set [12] concerns Triticum aestivum. Description: Increase in antioxidant enzyme system in Triticum aestivum (wheat) shoots assessed as increase in ascorbate peroxidase activity compound administered at rate of 14 mf/flat measured 24 hr post treatment. Type of data set: functional.
The subject of data set [13] is Shoot. Description: Drug level in Triticum aestivum (wheat) shoots compound administered at rate of 14 mf/flat measured 144 hr post treatment by HPLC. Type of data set: ADME.
The test system of data set [14] is Lolium multiflorum. The data set can be described thus: Increase in MDA content in Lolium multiflorum (Italian ryegrass) shoots compound administered at rate of 14 mf/flat measured 24 hr post treatment. Type of data set: functional.
Data set [15] has as its system Triticum aestivum. Description: Reduction in glutathione S-transferase activity in Triticum aestivum (wheat) shoots compound administered at rate of 14 mf/flat measured 48 hr post treatment. It counts as functional. The arrangement: scale not given: the % may be the effect or the level left.

SMILES strings stand for the structures.

In the case of `O=[N+]([O-])c1ccc(Oc2ccc(C(F)(F)F)cc2[N+](=O)[O-])cc1` [FLUORODIFEN], the Activity in data set [1] was 0.74 µM; in [2] it was 2.3 nmol/s/mg protein; in data set [3], 1 nmol/s/mg protein; in data set [4], 4.2 nmol/s/mg protein; in [5], -0.94 micromol/m2/s; in data set [6], -0.77 micromol/m2/s. The Activity stood at 97% in [7]; 19% in [8]; 21% in data set [9]; 2.13 micromol/m2/s in data set [10]; 17.2 nmol/s/mg protein in data set [11]; 46% in data set [12].

With `CCNc1nc(Cl)nc(NC(C)C)n1` [ATRAZINE], the Drug uptake in data set [13] turned out to be 0.35 ppm. For the same molecule, the Activity in data set [1] was determined as 0.85 µM; in [2], 2.5 nmol/s/mg protein; in [3], 1 nmol/s/mg protein; in [4], 4.5 nmol/s/mg protein; in data set [14], 25%; in data set [7] it was 35%. Further, the Activity in data set [15] is 26%; in data set [10], 0.22 micromol/m2/s; in [11], 18 nmol/s/mg protein; in data set [12] it was 40%.

Values taken from ChEMBL document CHEMBL3045349, “A comparative study on the interference of two herbicides in wheat and italian ryegrass and on their antioxidant activities and detoxification rates” (J Agric Food Chem, 2011).
